ChEMBL document CHEMBL2046362, “Synthesis and evaluation of novel potent HCV NS5A inhibitors” (Bioorg Med Chem Lett, 2012)

How the values were obtained:
[1] = Cytotoxicity against human HuH7 cells; assay type: cell-based, Huh-7
[2] = biological target: T1, Nonstructural protein 5A (Hepatitis C virus) (UniProt Q5L478); experiment: Inhibition of HCV NS5A assessed as antiviral activity against HCV by viral replicon assay; conditions: Hepacivirus hominis
T1 sequence (whole entry): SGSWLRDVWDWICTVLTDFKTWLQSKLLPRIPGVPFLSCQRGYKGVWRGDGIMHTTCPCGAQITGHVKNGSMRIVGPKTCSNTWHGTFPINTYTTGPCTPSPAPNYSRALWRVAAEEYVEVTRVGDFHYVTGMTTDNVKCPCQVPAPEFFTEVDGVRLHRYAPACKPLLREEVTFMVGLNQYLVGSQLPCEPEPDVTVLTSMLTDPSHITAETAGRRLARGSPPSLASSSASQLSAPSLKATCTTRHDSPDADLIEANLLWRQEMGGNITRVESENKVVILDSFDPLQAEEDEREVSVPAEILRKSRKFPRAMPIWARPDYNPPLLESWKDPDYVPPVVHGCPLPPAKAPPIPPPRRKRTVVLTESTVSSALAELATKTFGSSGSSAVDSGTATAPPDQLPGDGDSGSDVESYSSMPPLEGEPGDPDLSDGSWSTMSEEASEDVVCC

[3] = Cytotoxicity against human PBMC cells; assay type: cell-based; conditions: PBMC cells

## COC(=O)N[C@H](C(=O)N1C[C@H](N=[N+]=[N-])C[C@H]1c1ncc(-c2ccc(-c3ccc(-c4cnc([C@@H]5C[C@@H](N=[N+]=[N-])CN5C(=O)[C@@H](NC(=O)OC)C(C)C)[nH]4)cc3)cc2)[nH]1)C(C)C
[1]
  CC50: > 1000 nM
[2]
  EC90: 54.2 pM
[3]
  CC50: > 100 µM
